Measurements from patent US7495027B2, “3-aryl-4-hydroxyfuranone compounds and the human and animal health use thereof” (Wyeth, priority 2003, dated 2009).
Converted amounts (≈) assume the structure as drawn. Where two headings read alike, the source gives them in different places.

Tests used:
[1] = molecular target: E. coli UDP-N-acetylglucosamine enolpyruvoyl transferase, MurA (Escherichia coli, UniProt P0A749); assay: biochemical; settings: (E) E. coli enzyme
Description: Evaluation of the Inhibitory Activity of Test Compounds Against Enzymes which Catalyze Bacterial Cell Wall Biosynthesis
S. aureus and E. coli UDP-N-acetylglucosamine enolpyruvoyl transferase, MurA
(§1) Preparation of Enzyme Solution:
The enzyme solution is prepared by admixing the following: 50 mM Tris/HCl pH 8.0, […] 1 M Tris, 5 mM DTT, […] 1 M DTT, 20% Glycerol 4 ml 50% Glycerol, add water to 10 ml.
(§2) Preparation of Stop Solution:
A procedure similar to that described by C. […] Experiments are performed by adding a solution of test compound (in a mixture of dimethylsulfoxide and water) and an enzyme solution to a well. After a pre-incubation period of 10 mintues at 37° C., Tris/BME buffer and assay buffer are added. A start point optical density (OD0) reading is taken at 340 nm immediately following the addition of assay buffer. After incubation for 1 hr at 37° C., the stop solution is added and the color is allowed to develop for 30 minutes.

[2] = molecular target: E. coli Enopyruvyl-UPD-N-acetylglucosamine reductase, Mur B (Escherichia coli, UniProt P08373); assay: biochemical; settings: (E) E. coli enzyme; read-out: MurB IC50 (converted)
Description: S. aureus and E. coli Enopyruvyl-UPD-N-acetylglucosamine reductase, Mur B
Preparation of Tris/BME buffer:
Dilute 17.5 uL of aqueous 5 mM BME (2-mercaptoethanol) to 50 mL with 50 mM Tris/HCl (pH 8.0).
as §1
Dilute aqueous MurB stock solution (0.94 mg/mL) with 200 parts 50 mM Tris/2-BME buffer.
Synthesis of Substrate for MurB (MurA Product EP-UDP-GluNAc):
A mixture of 13 mg UDP-N-acetylglucosamine and 5.5 mg phosphoenolpyruvate are dissolved in 10 mL Tris/BME buffer forming 2 mM concentrations of each reagent in solution.
Preparation of Assay Buffer:
The assay buffer is prepared in water from reagents with the following final concentrations: 100 mM Tris/HCl (pH 8.0), 200 μM NADPH, 100 μM MurB substrate, 10 μM 2-mercaptoethanol, and 10 μM KCl.
Experiments are performed by adding 20 μL of a solution of test compound in a mixture of dimethylsulfoxide and water and 30 μL of enzyme solution to a well. After a pre-incubation period of 20 mins. at 23° C., 50 μL of Tris/BME buffer and 100 μL of assay buffer are added. […] Controls are performed using the same procedure and employing 20 μL of a blank dimethylsulfonide and solvent mixture in place of the test compound solution.
Using these values, the IC50 for each test compound is determined by linear regression analysis.

[3] = molecular target: E. coli Uridine-diphosphate-N-acetvimuramoyl: L-alanine lipase, MurC (Escherichia coli, UniProt P17952); assay: Inhibitory activity against MurC (E. coli); type: biochemical; settings: (E) E. coli enzyme; read-out: MurC IC50 (converted)
Description: S. aureus and E. coli Uridine-diphosphate-N-acetvimuramoyl: L-alanine lipase, MurC
The buffer is prepared from aqueous reagents with the following final concentrations: 83 mM Tris/HCl (pH 8.0), 50 mM MgC12, and 2 mM ATP.
as §1
A 1 mg/mL stock solution of MurC is prepared in a buffer consisting of 20 mM Tris/HCl (pH 8.5) with 2.5 μM BME. The stock solution is further diluted with the buffer to give a final enzyme concentration of 100 μg/mL for the E. coli stock solution and 70 μg/mL for the S. aureus stock solution.
(§3) Preparation of Test Compound Solutions:
(§4) All test solutions are prepared in DMSO as 10 mg/mL, then diluted with 50 mM Tris/HCl (pH 8.5) to 100 μg/mL.
as §2
The stop solution is prepared by stirring 1 part 4.2% ammonium molydbate in 4N HCl with 2 parts 0.045% malachite green for 30 min.
In this evaluation, the inhibitory activity of a test compound against MurC, the enzyme which catalyzes the third step of bacterial cell wall bioxynthesis is determined. Experiments are performed by adding 2.5 μl buffer, 2.5 μl 0.5M NH4SO2, 5 μl 2 μM L-Ala, 5 μl enzyme solution and 6.5 μl test compound solution to each well in a 96-well microplate. After a pre-incubation period of 10 mins. at 23° C., 3.75 μl of a 0.75 μM solution of UDP-MurNac is added to each well. Following an incubation period of 10 mins. at 37° C., 210 μl stop solution and 50 μl of a 34% w/v sodium citrate solution are added and color is allowed to develop for 10 mins. at 23° C. (Lanzetta et al., Analytical Biochemistry, 1979, 95) Optical density readings are taken at 660 nm using a Molecular Devices Spectra Max 250 with Soft Max software. Controls are performed using the same procedure and omitting the addition of UDP-MurNac.
Using these values the IC50 is determined by linear regression analysis.

[4] = molecular target: T1, S. aureus Uridine-diphosphate-N-acetylmuramoyl-L-alanine: D-glutamate liease, MurD (Staphylococcus aureus, UniProt Q2FZ92); assay: biochemical; settings: (S) S. aureus enzyme
T1 sequence (Q2FZ92 1-449): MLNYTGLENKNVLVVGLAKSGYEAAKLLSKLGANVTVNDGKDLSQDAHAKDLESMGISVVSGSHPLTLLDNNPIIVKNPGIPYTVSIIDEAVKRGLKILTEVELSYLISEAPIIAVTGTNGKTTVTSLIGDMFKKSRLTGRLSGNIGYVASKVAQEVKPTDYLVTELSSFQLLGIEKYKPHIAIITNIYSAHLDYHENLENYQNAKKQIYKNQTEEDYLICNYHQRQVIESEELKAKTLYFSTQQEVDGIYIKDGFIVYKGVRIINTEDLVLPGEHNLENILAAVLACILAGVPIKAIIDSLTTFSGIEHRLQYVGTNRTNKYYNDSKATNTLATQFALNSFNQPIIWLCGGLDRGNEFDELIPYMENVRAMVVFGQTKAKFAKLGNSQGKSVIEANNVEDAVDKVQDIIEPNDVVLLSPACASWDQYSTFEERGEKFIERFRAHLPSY
Description: (§5) S. aureus and E. coli Uridine-diphosphate-N-acetylmuramoyl-L-alanine: D-glutamate liease, MurD
as §1, §3, §4, §2
(§6) In this evaluation, the inhibitory activity of a test compound against MurD, the enzyme which catalyzes the fourth step of bacterial cell wall biosynthesis is determined.

[5] = molecular target: E. coli Uridine-diphosphate-N-acetylmuramoyl-L-alanine: D-glutamate liease, MurD (Escherichia coli, UniProt P14900); assay: biochemical; settings: (E) E. coli enzyme
Description: as §5
The buffer is prepared from aqueous reagents with the following final concentrations: 83 mM Tris/HCl (pH 8.0), 50 mM MgCl2, and 2 mM ATP.
as §1, §3, §4, §2, §6

staphylococci = assay: Minimum inhibitory concentration, microdilution broth method, staphylococci; type: cell-based; settings: Staphylococcus aureus, Mueller-Hinton broth, 18-22 hours at 35° C.
Description: (§7) Evaluation of the Minimum Inhibitory Concentration of Test Compounds Against A Variety of Bacterial Strains
(§8) In this evaluation the minimal inhibitory concentration (MIC) of test compounds against Gram positive and Gram negative bacteria is performed using the microdilution broth method as recommended by the National Committee for Clinical Laboratory Standards (Approved Standards M7-A5 2000). Mueller-Hinton broth is used for the enterobacteriaceae, staphylococci and enterococci. Streptococci are also tested in Mueller-Hinton broth supplemented with 5% horse blood (LHB). Test organisms include recent clinical isolates that are resistant to methicillin, penicillin and/or vancomycin. […].

enterococci = assay: Minimum inhibitory concentration, microdilution broth method, enterococci; type: cell-based; settings: Enterococcus faecalis, Mueller-Hinton broth, 18-22 hours at 35° C.
Description: as §7, §8

Streptococci = assay: Minimum inhibitory concentration, microdilution broth method, streptococci; type: cell-based; settings: S. pneumo GC 1894; Mueller-Hinton broth with 5% horse blood, 18-22 hours at 35° C.
Description: as §7, §8

[6] = S. aureus GC 1131, read-out: MIC S. aureus GC 1131
[7] = S. aureus GC 4543, read-out: MIC S. aureus GC 4543
[8] = E. faecalis GC 2242, read-out: MIC E. faecalis GC 2242
[9] = E. faecalis GC 4555, read-out: MIC E. faecalis GC 4555

E. coli Enopyruvyl-UPD-N-acetylglucosamine reductase, Mur B, sequence (P08373 whole entry): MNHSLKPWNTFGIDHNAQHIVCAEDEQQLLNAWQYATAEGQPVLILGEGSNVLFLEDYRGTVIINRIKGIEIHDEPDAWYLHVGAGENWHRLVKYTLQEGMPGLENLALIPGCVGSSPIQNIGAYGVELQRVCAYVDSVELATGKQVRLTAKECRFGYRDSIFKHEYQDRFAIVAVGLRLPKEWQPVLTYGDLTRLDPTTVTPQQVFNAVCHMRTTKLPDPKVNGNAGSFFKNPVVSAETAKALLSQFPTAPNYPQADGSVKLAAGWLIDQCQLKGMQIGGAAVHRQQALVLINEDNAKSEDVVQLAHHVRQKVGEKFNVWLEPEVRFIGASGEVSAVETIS
E. coli Uridine-diphosphate-N-acetvimuramoyl: L-alanine lipase, MurC, sequence (P17952 whole entry): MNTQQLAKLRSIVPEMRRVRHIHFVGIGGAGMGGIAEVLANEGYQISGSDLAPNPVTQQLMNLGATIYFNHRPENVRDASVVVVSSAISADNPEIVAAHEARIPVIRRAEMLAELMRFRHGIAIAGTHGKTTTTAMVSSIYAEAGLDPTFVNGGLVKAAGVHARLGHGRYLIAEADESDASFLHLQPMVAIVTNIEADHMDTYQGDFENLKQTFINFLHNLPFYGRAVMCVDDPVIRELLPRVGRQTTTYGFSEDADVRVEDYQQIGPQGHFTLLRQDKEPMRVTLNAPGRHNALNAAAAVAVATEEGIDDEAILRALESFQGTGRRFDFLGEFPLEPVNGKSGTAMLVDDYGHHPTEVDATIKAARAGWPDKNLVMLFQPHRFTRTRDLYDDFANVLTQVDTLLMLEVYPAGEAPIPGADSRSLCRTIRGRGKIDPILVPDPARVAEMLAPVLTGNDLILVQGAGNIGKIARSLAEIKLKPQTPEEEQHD
E. coli Uridine-diphosphate-N-acetylmuramoyl-L-alanine: D-glutamate liease, MurD, sequence (P14900 whole entry): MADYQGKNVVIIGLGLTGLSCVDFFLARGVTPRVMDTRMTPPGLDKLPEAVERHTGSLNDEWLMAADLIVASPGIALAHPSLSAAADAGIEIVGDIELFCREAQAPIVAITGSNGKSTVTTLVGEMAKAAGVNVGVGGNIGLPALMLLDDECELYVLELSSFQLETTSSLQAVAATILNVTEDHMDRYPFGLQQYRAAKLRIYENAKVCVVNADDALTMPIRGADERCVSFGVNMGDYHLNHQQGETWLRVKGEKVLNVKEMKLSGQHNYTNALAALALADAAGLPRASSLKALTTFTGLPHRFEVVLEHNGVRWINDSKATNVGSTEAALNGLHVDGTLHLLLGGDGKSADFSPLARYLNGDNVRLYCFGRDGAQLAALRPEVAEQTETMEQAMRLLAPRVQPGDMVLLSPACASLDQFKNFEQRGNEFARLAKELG
E. coli UDP-N-acetylglucosamine enolpyruvoyl transferase, MurA, sequence (P0A749 whole entry): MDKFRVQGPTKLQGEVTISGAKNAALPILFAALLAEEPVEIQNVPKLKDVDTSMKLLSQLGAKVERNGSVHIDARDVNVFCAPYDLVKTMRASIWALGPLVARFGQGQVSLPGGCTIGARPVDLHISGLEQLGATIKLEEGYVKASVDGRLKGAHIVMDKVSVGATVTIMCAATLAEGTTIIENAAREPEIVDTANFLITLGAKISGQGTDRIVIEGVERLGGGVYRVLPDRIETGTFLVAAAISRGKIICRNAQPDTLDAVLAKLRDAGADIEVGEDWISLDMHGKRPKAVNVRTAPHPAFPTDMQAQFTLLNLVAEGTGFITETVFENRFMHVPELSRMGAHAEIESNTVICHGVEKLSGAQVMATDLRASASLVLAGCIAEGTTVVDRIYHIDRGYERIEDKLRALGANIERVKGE

Row | SMILES | IC50 [1] [µM] | IC50 [2] [µM] | IC50 [3] [µM] | IC50 [4] [µM] | IC50 [5] [µM] | MIC (staphylococci; [6]) [µg/mL] | MIC (staphylococci; [7]) [µg/mL] | MIC (enterococci; [8]) [µg/mL] | MIC (enterococci; [9]) [µg/mL] | MIC (Streptococci) [µg/mL]
1 | Cc1ccc(C2=C(O)/C(=C/c3ccc(-c4ccc(C)cc4)cc3)OC2=O)cc1 [Example 57] | > 67.9 | 16.3 | 54.3 | 51.6 | 46.1 | 32 (≈ 86.9 µM) | 4 (≈ 10.9 µM) | 2 (≈ 5.43 µM) | 8 (≈ 21.7 µM) | < 0.125
2 | O=C1O/C(=C\c2ccc(-c3ccccc3F)cc2)C(O)=C1c1ccccc1F [Example 58] | > 66.4 | > 66.4 | 37.2 | > 66.4 | > 66.4 | 8 (≈ 21.3 µM) | 16 (≈ 42.5 µM) | 16 (≈ 42.5 µM) | > 128 | < 0.125
3 | N#Cc1cccc(-c2ccc(/C=C3\OC(=O)C(c4ccccc4C#N)=C3O)cc2)c1 [Example 59] | 43.5 | 15.4 | 15.4 | 12.8 | 12.8 | > 128 | > 128 | 8 (≈ 20.5 µM) | 8 (≈ 20.5 µM) | 32 (≈ 82 µM)
4 | Cc1ccccc1C1=C(O)/C(=C/c2ccc(-c3ccccc3C)cc2)OC1=O [Example 60] | > 67.9 | > 67.9 | 38 | 59.7 | > 67.9 | 16 (≈ 43.4 µM) | 16 (≈ 43.4 µM) | 8 (≈ 21.7 µM) | 32 (≈ 86.9 µM) | 8 (≈ 21.7 µM)
5 | CCOc1ccc(-c2ccc(C3=C(O)/C(=C/c4ccc(Cl)c(C(F)(F)F)c4)OC3=O)cc2)cc1 [Example 124] | 28.8 | 24.6 | > 51.3 |  | > 51.3 | 32 (≈ 65.7 µM) | 32 (≈ 65.7 µM) | 16 (≈ 32.9 µM) | 32 (≈ 65.7 µM) | 1 (≈ 2.05 µM)
6 | O=C1O/C(=C\c2cc(C(F)(F)F)ccc2Cl)C(O)=C1c1ccc(-c2ccccc2)cc1 [Example 125] | 9.03 | 11.3 | 2.26 |  | 45.2 | 2 (≈ 4.52 µM) | 2 (≈ 4.52 µM) | 4 (≈ 9.03 µM) | 8 (≈ 18.1 µM) | 0.5 (≈ 1.13 µM)
